Test results taken from ChEMBL document CHEMBL5030562, “Synthesis and antiviral evaluation of cytisine derivatives against dengue virus types 1 and 2” (Bioorg Med Chem Lett, 2021).
Activity calls are given as the source filed them. No cut-off for these calls is given here.

Tests used:
[1] = Cytotoxicity against African green monkey Vero E6 cells assessed as reduction in cell viability by MTT assay; assay type: cell-based, Vero C1008; conditions: chlorocebus sabaeus
[2] = test system: dengue virus type 2; assay: Antiviral activity against DENV2 infected in African green monkey Vero E6 cells assessed as inhibition of virus induced cytopathic effect at 10 uM measured after 96 hrs by immunofluorescent staining based inverted microscopic analysis relative to control; assay type: functional; conditions: Vero C1008
[3] = test system: dengue virus type 2; assay: Antiviral activity against DENV2 infected in African green monkey Vero E6 cells assessed as reduction in induced cytopathic effect at 10 uM after 96 hrs by immunofluorescent staining based inverted microscopic analysis; assay type: functional, organism-based
[4] = test system: A549; assay: Cytotoxicity against human A549 cells assessed as reduction in cell viability by MTT assay; assay type: functional
[5] = test system: dengue virus type 1; assay: Antiviral activity against DENV1 infected in African green monkey Vero E6 cells assessed as reduction in induced cytopathic effect at 10 uM after 96 hrs by immunofluorescent staining based inverted microscopic analysis; assay type: functional, organism-based
[6] = test system: dengue virus type 2; assay: Antiviral activity against DENV2 infected in African green monkey Vero E6 cells assessed as inhibition of virus induced cytopathic effect measured after 96 hrs by immunofluorescent staining based inverted microscopic analysis; assay type: functional, organism-based; conditions: Vero C1008, 96 h
[7] = test system: dengue virus type 2; assay: Antiviral activity against Dengue virus 2 infected in African green monkey Vero E6 cells assessed as inhibition of viral replication at attachment stage measured after 96 hrs by DAPI staining based fluorescence microscopic analysis; assay type: functional, organism-based; conditions: Vero C1008, 96 h
[8] = test system: Human respirovirus 3; assay: Antiviral activity against Parainfluenza virus type 3; assay type: functional, organism-based
[9] = test system: dengue virus type 2; assay: Antiviral activity against DENV2 infected in human A549 cells assessed as inhibition of virus induced cytopathic effect measured after 96 hrs by immunofluorescent staining based inverted microscopic analysis; assay type: functional, organism-based; conditions: A549, 96 h
[10] = test system: dengue virus type 1; assay: Antiviral activity against DENV1 infected in African green monkey Vero E6 cells assessed as inhibition of virus induced cytopathic effect measured after 96 hrs by immunofluorescent staining based inverted microscopic analysis; assay type: functional, organism-based; conditions: Vero C1008, 96 h
[11] = test system: Influenza A virus; assay: Antiviral activity against Influenza A virus; assay type: functional, organism-based
[12] = test system: dengue virus type 2; assay: Antiviral activity against Dengue virus 2 infected in African green monkey Vero E6 cells assessed as inhibition of viral replication at post entry stage measured after 96 hrs by DAPI staining based fluorescence microscopic analysis; assay type: functional, organism-based; conditions: Vero C1008, 96 h
[13] = Selectivity index, ratio of CC50 for cytotoxicity in African green monkey Vero E6 cells to IC50 for Antiviral activity against DENV2 infected in African green monkey Vero E6 cells; assay type: toxicity, cell-based, Vero C1008; conditions: read-out: Ratio CC50/IC50
[14] = test system: dengue virus type 2; assay: Antiviral activity against Dengue virus 2 infected in African green monkey Vero E6 cells assessed as inhibition of viral replication at entry stage measured after 96 hrs by DAPI staining based fluorescence microscopic analysis; assay type: functional, organism-based; conditions: Vero C1008, 96 h
[15] = Selectivity index, ratio of CC50 for cytotoxicity in human A549 cells to IC50 for Antiviral activity against DENV2 infected in African green monkey Vero E6 cells; assay type: toxicity, cell-based
[16] = test system: Hepatitis B virus; assay: Antiviral activity against Hepatitis B virus; assay type: functional, organism-based
[17] = test system: dengue virus type 1; assay: Antiviral activity against DENV1 infected in African green monkey Vero E6 cell assessed as inhibition of virus induced cytopathic effect at 10 uM measured after 96 hrs by immunofluorescent staining based inverted microscopic analysis relative to control; assay type: functional; conditions: Vero C1008
[18] = test system: dengue virus type 1; assay: Selectivity index, ratio of CC50 for cytotoxicity in African green monkey Vero E6 cells to IC50 for Antiviral activity against DENV1 infected in African green monkey Vero E6 cells; assay type: functional, Vero C1008

| SMILES | CC50 [1] [µM] | inhibition at 10 µM [2] [%] | Activity [3] | CC50 [4] [µM] | Activity [5] | IC50 [6] [µM] | IC50 [7] [µM] | IC50 [8] [µM] | IC50 [9] [µM] | IC50 [10] [µM] | IC50 [11] [µM] | IC50 [12] [µM] | selectivity ratio [13] | IC50 [14] [µM] | selectivity ratio [15] | IC50 [16] [µM] | inhibition at 10 µM [17] [%] | Ratio CC50/IC50 [18] |
| --- | --- | --- | --- | --- | --- | --- | --- | --- | --- | --- | --- | --- | --- | --- | --- | --- | --- | --- |
| CN1C[C@H]2C[C@@H](C1)c1ccc(NCc3ccccc3O)c(=O)n1C2 | > 50 | 39 | Active | > 50 |  |  |  |  |  |  |  |  |  |  |  |  |  |  |
| Cn1cc(CNc2ccc3n(c2=O)C[C@@H]2C[C@H]3CN3CCCCC23)c(=O)n(C)c1=O (stereo partly specified) | > 50 | 53.3 | Active | > 50 |  |  |  |  |  |  |  |  |  |  |  |  |  |  |
| CCOC(=O)CNC(=S)Nc1ccc2n(c1=O)C[C@@H]1C[C@H]2CN(C)C1 | > 50 | 60.9 | Active | > 50 |  |  |  |  |  |  |  |  |  |  |  |  |  |  |
| CN1C[C@H]2C[C@@H](C1)c1ccc(NCc3cn(C)c(=O)n(C)c3=O)c(=O)n1C2 (single isomer, unassigned) | > 50 | 79.2 | Active | > 50 | Active | < 0.1 | 9.3 | > 3 | 0.66 | 1.38 | > 3 | 0.237 | > 109 | 1.84 | > 75.8 | > 3 | 73.9 | >36.2 |
| Cn1cc(CNc2ccc3n(c2=O)C[C@@H]2C[C@H]3CN(Cc3ccccc3)C2)c(=O)n(C)c1=O (single isomer, unassigned) | > 50 | 58.8 | Active | > 50 |  |  |  |  |  |  |  |  |  |  |  |  |  |  |
| O=c1ccc(Cl)c2n1C[C@@H]1C[C@H]2CN(C(=S)Nc2ccccc2)C1 | > 50 | 11.2 | Active | > 50 |  |  |  |  |  |  |  |  |  |  |  |  |  |  |
| C=CCNC(=S)N1C[C@H]2C[C@@H](C1)c1cccc(=O)n1C2 | > 50 | 86.4 | Active | > 50 | Active | < 0.1 | 0.315 | > 3 | < 0.1 | 0.14 | > 3 | 7.51 | > 500 | < 0.1 | > 500 | > 3 | 81.2 | >357.1 |
| C=CCN1C[C@H]2C[C@@H](C1)c1ccc(NCc3cn(C)c(=O)n(C)c3=O)c(=O)n1C2 | > 50 | 43.3 | Active | > 50 |  |  |  |  |  |  |  |  |  |  |  |  |  |  |
| CCOC(=O)CNC(=O)Nc1ccc2n(c1=O)C[C@@H]1C[C@H]2CN(C)C1 (single isomer, unassigned) | > 50 | 40.3 | Active | > 50 |  |  |  |  |  |  |  |  |  |  |  |  |  |  |
| Cn1cc(CNc2ccc3n(c2=O)C[C@@H]2C[C@H]3CN(C(=O)Nc3ccccc3)C2)c(=O)n(C)c1=O | > 50 | 74 | Active | > 50 | Active | < 0.1 | 6.45 | > 3 | 0.47 | 0.49 | > 3 | < 0.1 | > 500 | 0.844 | > 106 | > 3 | 57.7 | >102 |
| O=c1cccc2n1C[C@@H]1C[C@H]2CN(C(=S)Nc2ccccc2)C1 | > 50 | 59.4 | Active | > 50 |  |  |  |  |  |  |  |  |  |  |  |  |  |  |
| CC(C)NC(=O)Nc1ccc2n(c1=O)C[C@@H]1C[C@H]2CN(C)C1 (single isomer, unassigned) | > 50 | 19.7 | Active | > 50 |  |  |  |  |  |  |  |  |  |  |  |  |  |  |
| CN1C[C@H]2C[C@@H](C1)c1ccc(NCc3ccc(O)cc3)c(=O)n1C2 | > 50 | 70.6 | Active | > 50 | Active | 2.3 | > 10 | > 3 | 0.78 | 0.97 | > 3 | < 0.1 | > 21.7 | 0.471 | > 64.1 | > 3 | 64.8 | >51.5 |
| C=CCNC(=S)N1C[C@H]2C[C@@H](C1)c1ccc([N+](=O)[O-])c(=O)n1C2 | > 50 | 48.9 | Active | > 50 |  |  |  |  |  |  |  |  |  |  |  |  |  |  |
| CN1C[C@H]2C[C@@H](C1)c1ccc([N+](=O)[O-])c(=O)n1C2 | > 50 | 76.7 | Active | > 50 | Active |  | 0.837 | > 3 | 0.77 | 2.4 | > 3 | 1.37 | > 500 | 1.13 | > 64.9 | > 3 | 61.2 | >20.8 |
| COC(=O)CN1C[C@H]2C[C@@H](C1)c1ccc(NCc3cn(C)c(=O)n(C)c3=O)c(=O)n1C2 | > 50 | 63.9 | Active | > 50 |  |  |  |  |  |  |  |  |  |  |  |  |  |  |
| CC(C)NC(=S)Nc1ccc2n(c1=O)C[C@@H]1CC2CN(C)C1 (single isomer, unassigned) | > 50 | 61.4 | Active | > 50 |  |  |  |  |  |  |  |  |  |  |  |  |  |  |
| CN1C[C@H]2C[C@@H](C1)c1ccc(NC/C=C/c3ccccc3)c(=O)n1C2 | > 50 | 3.2 | Active | > 50 |  |  |  |  |  |  |  |  |  |  |  |  |  |  |
